Assay results taken from patent publication US9464064B2, “HCV helicase inhibitors and methods of use thereof” (University of Kansas, priority 2011, dated 2016).
Where two headings read alike, the source gives them in different places.

Tests used:
[1] = system: HCV RLuc subgenomic replicon (genotype 1b) in Huh-7.5 cells; experiment: HCV subgenomic replicon assay (Renilla luciferase); assay type: cell-based, hepatitis C virus; details: Hepatitis C virus
Description: An HCV Renilla luciferase reporter construct (HCV RLuc; Huang, et al. (2006) Hepatology 43:81-90) was used to measure the effect of each compound on cellular HCV RNA levels. In HCV RLuc, the HCV internal ribosome entry site (IRES) drives the translation of the neomycin and Renilla luciferase genes while the HCV nonstructural proteins (NS3 to NS5B) are translated from the Encephalomyocarditis virus IRES (Huang, et al. (2006) supra). The plasmid DNA was cleaved with ScaI, purified by phenol/chloroform extraction followed by ethanol precipitation, and used as template for RNA transcription using […] T7 RNA transcription kit (Ambion, Austin, Tex.). The RNA transcripts were treated with 2 U DNase I (Ambion) at 37° C. for 30 minutes, purified by acid phenol/chloroform extraction, followed by isopropanol precipitation, and suspended in diethylpyrocarbonate-treated water. RNA concentration was determined by spectrophotometry by measuring the A260. RNA integrity and size was checked on 1% agarose gel. Transcribed RNA was stored in aliquots at −80° C. until needed.
Huh-7.5 cells were transfected with HCV RNA by electroporation. Briefly, subconfluent Huh7.5 cells were trypsinized, suspended in complete growth medium, and centrifuged at 1,000×g for 5 minutes at 4° C. The cell pellets were then washed twice with ice-cold phosphate-buffered saline (PBS) and suspended at 1.75×10^7 cells/mL in ice-cold PBS. Replicon RNA (5 μg) was mixed with 0.4 mL of cell suspension and transferred to 2 mm gap width electroporation cuvette (EPPENDORF AG, Germany) and pulsed 5 times for 99 μsec at 820 V over 1.1 sec intervals using the ECM 830 electroporator instrument (BTX Harvard Apparatus, Holliston, Mass.). After a 5 minute recovery period at room temperature, cells were transferred to 10 ml complete growth medium, and seeded into 10 cm diameter cell culture dishes. Twenty-four hours after transfection, the medium was replaced with fresh complete DMEM supplemented with 1 mg/ml geneticin (Invitrogen) and the medium was replaced every three to four days with fresh medium containing 1 mg/mL geneticin. Geneticin-resistant colonies were selected for a period of two weeks and expanded in the presence of 250 μg/mL geneticin.
HCV RLuc replicon cells were seeded at a density of 10×10^3 cells per well in 96-well plates and incubated for 4-5 hours to allow the cells to attach to the plate. The compounds dissolved in dimethyl sulfoxide (DMSO) were added at a final concentration of 10 μM (DMSO solvent final concentration was 0.5%) and the cells were incubated for 72 hours at 37° C. under 5% CO2 atmosphere. The effects of compounds on HCV replication were then assessed by measuring the Renilla luciferase activity in compound-treated versus DMSO-treated cells. At the end of the incubation period, the medium was aspirated and the cells were washed with 1×PBS. The Renilla luciferase reporter gene assay was performed using the Renilla luciferase assay kit (PROMEGA, Madison, Wis.) according to the manufacturer's instructions. Briefly, the cells were lysed by addition of 50 μL of 1× Renilla luciferase lysis buffer followed by two cycles of freeze/thaw. The luciferase activity content of the lysate was measured with a FLUOSTAR Omega microplate reader instrument (BMG Labtech, Germany) after injecting 50 μL of luciferase substrate and reading for 5 seconds.
To determine if the above identified compounds might be useful as HCV antiviral agents, they were added to cells harboring HCV subgenomic RNA replicon. The HCV replicon chosen was derived from the same HCV strain (genotype 1b) as the NS3 protein used for screening and enzyme assays. […] 75:4614-4624; Blight, et al. (2002) J. Virol. 76:13001-13014). […]

NS3h_2a(JFH1) = biological target: T1, NS3h_2a(JFH1) (Hepatitis C virus genotype 2a, UniProt Q99IB8); experiment: MBHA, DNA substrate, genotype 2a helicase; assay type: biochemical, hepatitis C virus genotype 2a(JFH1)
T1 construct: truncated C-terminally His-tagged NS3 proteins lacking the N-terminal protease, called NS3h; His-tag (C); made in house
Experimental: All oligonucleotides were purchased from Integrated DNA Technologies (IDT, Coralville, Iowa). Primuline derivatives were synthesized and purified as described herein. Three different NS3 proteins were used in this study. Two were truncated C-terminally His-tagged NS3 proteins lacking the N-terminal protease, called NS3h, the third was a full-length NS3 with the portion of NS4A needed for protease activation fused to its N-terminus, called scNS4A-NS3 (Howe, et al. (1999) Protein Sci. 8:1332-41), and the fourth was a 23 kDa scNS4A-NS3 protease fragment lacking the helicase domains, called scNS4A-NS3p (Protein One, Rockville, Md.). NS3h was expressed from two different HCV strains. NS3h_1b(con1) was from the con1 strain of genotype 1b (GENBANK accession AB114136), and NS3h_2a(JFH1) was from the JFH1 strain of HCV genotype 2a (GENBANK accession AJ238799). […] His-tagged recombinant NS3h_1b(con1), NS3h_2a(JFH1), and scNS4A-NS3 (also from genotype 1b(con1)) were expressed, and purified as previously described (Frick, et al. (2010) supra; Lam, et al. (2003) J. Virol. 77:3950-3961). The scNS4A-NS3p (genotype 1b) was from Protein One. A plasmid expressing NS3h from dengue virus strain 2 (NS3h_DV2)(GENBANK accession 2BMF) is known in the art (Xu, et al. (2005) J. Virol. 79:10278-10288), and used to express and purify NS3h_DV2 (Belon, et al. (2010) supra)
Compounds that specifically target less conserved regions of a HCV protein are often not potent inhibitors of the same protein derived from other genotypes, and they might be susceptible to rapid evolution of related viruses. As described herein, primuline derivatives can inhibit HCV helicase isolated from the genotype 1b(con1) strain. Therefore to further analyze specificity, the subset of primuline analogs was tested on the helicase isolated from the genotype 2a(JFH1) strain. The two recombinant proteins differ at 83 of their 480 amino acids. The JHF1 strain is also of interest because it serves as the backbone for HCV strains capable of replicating in cell culture (Wakita, et al. (2005) Nat. Med. 11:791-796). The molecular beacon-based helicase assay (MBHA) (Belon & Frick (2008) supra) was used to measure the ability of each compound to inhibit DNA unwinding catalyzed by NS3h isolated from genotype 2a(JFH1) (NS3h_2a(JFH1)). […] Selected compounds were also tested for the ability to inhibit helicase reactions catalyzed by full-length NS3 and a single chain NS4A-NS3 protein (scNS4A-NS3) described below and used for protease assays.

[2] = Huh7.5, 10 μM compound, triplicate, average ± SD, read-out: HCV replication (% Inh.)
[3] = Huh7.5, 10 μM, read-out: Replicon (% Inhibition @ 10 μM)
[4] = genotype 2a (JFH1), read-out: Target Potency MBHA (IC50 avg., μM) 2a (JFH1) (converted)
[5] = DNA-based MBHA, genotype 2a(JFH1), read-out: DNA Helicase NS3h_2a IC50 (μM) ± SD

T1 sequence (Q99IB8 1196-1661): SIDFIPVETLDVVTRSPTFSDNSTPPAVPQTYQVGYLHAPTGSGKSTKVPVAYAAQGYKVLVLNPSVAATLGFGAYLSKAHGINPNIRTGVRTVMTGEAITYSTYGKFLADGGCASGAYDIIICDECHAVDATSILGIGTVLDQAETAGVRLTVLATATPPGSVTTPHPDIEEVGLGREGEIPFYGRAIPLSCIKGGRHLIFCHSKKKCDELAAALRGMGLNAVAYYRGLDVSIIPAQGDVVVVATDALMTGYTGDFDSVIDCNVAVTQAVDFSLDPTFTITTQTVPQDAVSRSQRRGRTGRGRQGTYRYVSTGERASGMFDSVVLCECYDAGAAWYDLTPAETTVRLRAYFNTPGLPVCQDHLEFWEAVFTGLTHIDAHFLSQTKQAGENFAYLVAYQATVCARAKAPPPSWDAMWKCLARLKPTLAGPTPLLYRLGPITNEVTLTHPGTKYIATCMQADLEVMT

Compound: Cc1ccc(NC(=O)Nc2ccc(-c3nc4ccc(-c5nc6ccc(C)c(S(=O)(=O)O)c6s5)cc4s3)cc2)cc1 [Compound 28, 6-methyl-2′-(4-(3-(p-tolyl)ureido)phenyl)-[2,6′-bibenzo[d]thiazole]-7-sulfonic acid]
- inhibition at 10 µM [1, 2]: 43 ± 9%
- inhibition at 10 µM [1, 3]: 43 ± 9%
- IC50 (NS3h_2a(JFH1); [4]): 4 µM

Compound: COc1ccc(S(=O)(=O)Nc2ccc(-c3nc4ccc(-c5nc6ccc(C)c(S(=O)(=O)O)c6s5)cc4s3)cc2)cc1 [Compound 29, 2′-(4-(4-methoxyphenylsulfonamido)phenyl)-6-methyl-[2,6′-bibenzo[d]thiazole]-7-sulfonic acid]
- inhibition at 10 µM [1, 2]: 44 ± 5%
- inhibition at 10 µM [1, 3]: 44 ± 5%
- IC50 (NS3h_2a(JFH1); [4]): 13.4 µM

Compound: CC(=O)Nc1ccc(-c2nc3ccc(-c4nc5ccc(C)c(S(=O)(=O)O)c5s4)cc3s2)cc1 [Compound 30, 2′-(4-acetamidophenyl)-6-methyl-[2,6′-bibenzo[d]thiazole]-7-sulfonic acid]
- inhibition at 10 µM [1, 2]: 1 ± 12%
- inhibition at 10 µM [1, 3]: 26 ± 21%
- IC50 (NS3h_2a(JFH1); [4]): > 100 µM

Compound: Cc1ccc2nc(-c3ccc4nc(-c5ccc(NC(=O)c6cccnc6)cc5)sc4c3)sc2c1S(=O)(=O)O [Compound 31, 6-methyl-2′-(4-(nicotinamido)phenyl)-[2,6′-bibenzo[d]thiazole]-7-sulfonic acid]
- inhibition at 10 µM [1, 2]: 51 ± 22%
- inhibition at 10 µM [1, 3]: 51 ± 22%
- IC50 (NS3h_2a(JFH1); [4]): 48 µM

Compound: Cc1ccc2nc(-c3ccc4nc(-c5ccc(NC(=O)c6ccncc6)cc5)sc4c3)sc2c1S(=O)(=O)O [Compound 32, 2′-(4-(isonicotinamido)phenyl)-6-methyl-[2,6′-bibenzo[d]thiazole]-7-sulfonic acid]
- inhibition at 10 µM [1, 2]: 59 ± 13%
- inhibition at 10 µM [1, 3]: 59 ± 13%
- IC50 (NS3h_2a(JFH1); [4]): 52 ± 25 µM

Compound: Cc1ccc2nc(-c3ccc4nc(-c5ccc(NC(=O)c6ccc7ccccc7c6)cc5)sc4c3)sc2c1S(=O)(=O)O [Compound 33, 2′-(4-(2-naphthamido)phenyl)-6-methyl-[2,6′-bibenzo[d]thiazole]-7-sulfonic acid]
- inhibition at 10 µM [1, 2]: 61 ± 10%
- inhibition at 10 µM [1, 3]: 21 ± 33%
- IC50 (NS3h_2a(JFH1); [5]): 2 ± 0.6 µM
- IC50 (NS3h_2a(JFH1); [4]): 4.4 µM

Compound: Cc1ccc2nc(-c3ccc4nc(-c5ccc(N(C)C(=O)c6ccc7ccccc7c6)cc5)sc4c3)sc2c1S(=O)(=O)O [Compound 34, 6-methyl-2′-(4-(N-methyl-2-naphthamido)phenyl)-[2,6′-bibenzo[d]thiazole]-7-sulfonic acid]
- inhibition at 10 µM [1, 2]: -30 ± 30%
- inhibition at 10 µM [1, 3]: 24 ± 32%
- IC50 (NS3h_2a(JFH1); [4]): 13.5 µM

Compound: Cc1ccc2nc(-c3ccc4nc(-c5ccc(NC(=O)c6ccc7nc(-c8ccc(N)cc8)sc7c6)cc5)sc4c3)sc2c1S(=O)(=O)O [Compound 35, 2′-(4-(2-(4-aminophenyl)benzo[d]thiazole-6-carboxamido)phenyl)-6-methyl-[2,6′-bibenzo[d]thiazole]-7-sulfonic acid]
- inhibition at 10 µM [1, 2]: 37 ± 4%
- inhibition at 10 µM [1, 3]: 37 ± 4%
- IC50 (NS3h_2a(JFH1); [5]): 3 ± 1.2 µM
- IC50 (NS3h_2a(JFH1); [4]): 3.5 µM

Compound: Cc1ccc2nc(-c3ccc4nc(-c5ccc(NC(=O)c6ccc7nc(-c8ccc(NC(=O)OCC9c%10ccccc%10-c%10ccccc%109)cc8)sc7c6)cc5)sc4c3)sc2c1S(=O)(=O)O.N [Compound 36]
- inhibition at 10 µM [1, 2]: 42 ± 5%
- inhibition at 10 µM [1, 3]: 44 ± 9%
- IC50 (NS3h_2a(JFH1); [4]): 1.9 µM

Compound: Cc1ccc2nc(-c3ccc(NC(=O)c4ccc(NC(=O)c5ccccc5)cc4)cc3)sc2c1S(=O)(=O)O.N [Compound 40]
- inhibition at 10 µM [1, 3]: -19 ± 42%
- IC50 (NS3h_2a(JFH1); [4]): 79.2 µM

Compound: Cc1ccc2nc(-c3ccc4nc(-c5ccc(NC(=O)c6ccc(CNC(=O)OCC7c8ccccc8-c8ccccc87)cc6)cc5)sc4c3)sc2c1S(=O)(=O)O.N [Compound 41]
- inhibition at 10 µM [1, 3]: 48 ± 18%
- IC50 (NS3h_2a(JFH1); [4]): 4.6 µM

Compound: Cc1ccc2nc(-c3ccc(NC(=O)c4ccc(NC(=O)OCC5c6ccccc6-c6ccccc65)cc4)cc3)sc2c1S(=O)(=O)O.N [Compound 42]
- inhibition at 10 µM [1, 3]: 31 ± 10%
- IC50 (NS3h_2a(JFH1); [4]): 12 µM

Compound: Cc1ccc2nc(-c3ccc(NC(=O)c4ccc(NC(=S)Nc5ccccc5)cc4)cc3)sc2c1S(=O)(=O)O.N [Compound 43]
- inhibition at 10 µM [1, 3]: -13 ± 2%
- IC50 (NS3h_2a(JFH1); [4]): 29 µM

Compound: Cc1ccc2nc(-c3ccc(NC(=O)c4ccc(NC(=O)c5ccc(C(F)(F)F)cc5)cc4)cc3)sc2c1S(=O)(=O)O.N [Compound 44]
- inhibition at 10 µM [1, 3]: 4 ± 8%
- IC50 (NS3h_2a(JFH1); [4]): 14.7 µM

Compound: Cc1ccc2nc(-c3ccc(NC(=O)c4ccc(NC(=O)Nc5ccccc5)cc4)cc3)sc2c1S(=O)(=O)O.N [Compound 45]
- inhibition at 10 µM [1, 3]: -64 ± 90%
- IC50 (NS3h_2a(JFH1); [4]): 32 µM

Compound: Cc1ccc2nc(-c3ccc(NC(=O)c4ccc(NC(=O)c5ccc(N)cc5)cc4)cc3)sc2c1S(=O)(=O)O.N [Compound 46]
- inhibition at 10 µM [1, 3]: -42 ± 26%
- IC50 (NS3h_2a(JFH1); [4]): 26 µM

Compound: Cc1ccc2nc(-c3ccc4nc(-c5ccc(NC(=O)Nc6ccc(C(F)(F)F)cc6)cc5)sc4c3)sc2c1S(=O)(=O)O.N [Compound 47]
- inhibition at 10 µM [1, 3]: 7 ± 39%
- IC50 (NS3h_2a(JFH1); [4]): 4 µM

Compound: Cc1ccc2nc(-c3ccc4nc(-c5ccc(NC(=O)Nc6ccc(F)cc6)cc5)sc4c3)sc2c1S(=O)(=O)O.N [Compound 48]
- inhibition at 10 µM [1, 3]: 17 ± 25%
- IC50 (NS3h_2a(JFH1); [4]): 9.9 µM

Compound: Cc1ccc2nc(-c3ccc4nc(-c5ccc(NC(=O)c6cccc7ccccc67)cc5)sc4c3)sc2c1S(=O)(=O)O.N [Compound 49]
- inhibition at 10 µM [1, 3]: -9 ± 8%
- IC50 (NS3h_2a(JFH1); [4]): 3.9 µM

Compound: Cc1ccc2nc(-c3ccc4nc(-c5ccc(NC(=S)Nc6ccccc6)cc5)sc4c3)sc2c1S(=O)(=O)O.N [Compound 50]
- inhibition at 10 µM [1, 3]: 9 ± 9%
- IC50 (NS3h_2a(JFH1); [4]): 9.6 µM

Compound: Cc1ccc2nc(-c3ccc(NC(=O)c4ccc(NC(=O)c5ccc(NC(=O)OCC6c7ccccc7-c7ccccc76)cc5)cc4)cc3)sc2c1S(=O)(=O)O.N [Compound 51]
- inhibition at 10 µM [1, 3]: -14 ± 26%
- IC50 (NS3h_2a(JFH1); [4]): 1.9 µM
